This is an account of results in patent publication US8962683B2, “Medium chain fatty acids applicable as anti-microbial agents” (Nutrition Sciences NV, priority 2004, dated 2015).

SMILES strings stand for the structures.

For experiment [1], the system named is Campylobacter jejuni VC 5, VC 6 and VC 7 strains. The experiment is described as follows: Effect of MCFA on growth and survival of Campylobacter sp. isolated from poultry caecum. Type of experiment: cell-based. As to conditions: medium pH 5.0; for relative antimicrobial effect on the tested Campylobacter strains: comparison between MCFA; for antimicrobial activity against Campylobacter strains (CFU/ml, FIGS. 1-9): micro-aerobic, tested concentrations, 0 and 180 minutes. The protocol:
In this example, the MIC values of different MCFA against Campylobacter sp. isolated from poultry caecum were determined.
Three tenfold dilutions of a 10% suspension of three types of MCFA's (C6, C8 and C10) were prepared in distilled water. To obtain the desired concentrations, 1.5, 0.75 and 0.36 ml of these dilutions were pipetted in petri dishes and carefully mixed with 15 ml molten growth medium. A suitable fermentation medium was used with a pH of 5.0.
Isolated Campylobacter strains were grown in suitable fermentation medium and incubated at 37° C. under micro-aerobic conditions by evacuating 80% of the normal atmosphere and introducing a gas mixture of 8% CO2, 8% H2 and 84% N2 into the jar. Inocula were prepared by diluting the cultures in buffered saline to a density of 0.5 on the McFarland turbidity scale and diluted 40-fold before inoculating. Plates were seeded with inoculum. Control plates of media without the product were inoculated at the end of the procedure. All plates were incubated at 37° C. under appropriate atmosphere. Readings were performed after 48 h. Campylobacter was counted after incubation.
These figures represent the number of colony forming units (CFU)/ml of Campylobacter jejuni VC 5 strain (FIGS. 1, 4, 7), Campylobacter jejuni VC 6 strain (FIGS. 2, 5, 8), and Campylobacter jejuni VC 7 strain (FIGS. 3, 6, 9) at various concentrations of MCFA and at two different time points (0 and 180 minutes).

The subject of a further experiment is E. coli K88. The experiment is described as follows: Antimicrobial effect of C6, C8 and C10 on E. coli K88 in acidified feed suspension (gastric simulation). Conditions: 20% feed suspension pH 4.0. It is filed as cell-based. How it is done:
In this example the anti-microbial activity of C6 and/or C8 and/or C10 MCFA against E. coli K88 was evaluated. The preparation of the test solution was as follows. to 1 kg feed (composition Table 6) an exactly determined quantity of E. coli K 88 was added. Subsequently, a suspension of 20% feed and 80% physiologic solution (0,85% saline) was created. To simulate the 20%-suspension in a gastric environment, a pH of 4.0 with 0.1 N HCl was established.
The acidified suspension was distributed in samples of 100 ml. Test substances were added in different concentrations as mentioned in table 7.
A microbial count at t=0 was executed. Samples were incubated during 3 h at 37° C. Samples were removed after 3 h and pH and microbial count were determined. The E. coli strains were counted on a Coli ID medium (Bio Mérieux, 42017).
The planned observations were: • a. Microbial count of control sample (blank) on t=0 • b. Microbial count of control sample (blank) and treatments on t=3 h. Table 8 depicts the calculated results proving the effectiveness of the anti-microbial effectiveness in the stomach of the different MCFA

Where [2] appears, read: 0.06% test substance, T = 3 h at 37° C.
The mark [3] stands for this setting: 0.125% test substance, T = 3 h at 37° C.
Where [4] appears, read: 0.250% test substance, T = 3 h at 37° C.
Setting [5] is: 0.500% test substance, T = 3 h at 37° C.

`CCCCCCCC(=O)O` [C8, caprylic acid]: in experiment [1], the “relative antimicrobial effect on the tested Campylobacter strains” value was “stronger antimicrobial effect compared to C6”. Further, the “antimicrobial activity against Campylobacter strains (CFU/ml, FIGS. 1-9)” value (from here on “antimicrobial activity”) in experiment [1] is on record as “show antimicrobial activities”. In addition, the Microbial count is on record as 5.649 Log (CFU/g) in the experiment with E. coli K88 (0.06% test substance, T = 0 h); “Total inhibition” in the experiment with E. coli K88 (setting [2]); 5.415 Log (CFU/g) with E. coli K88 (0.125% test substance, T = 0 h); “Total inhibition” in the experiment on E. coli K88 (setting [3]); “Total inhibition” in the experiment with E. coli K88 (0.250% test substance, T = 0 h); “Total inhibition” in the experiment on E. coli K88 (setting [4]). The Microbial count entry with E. coli K88 (0.500% test substance, T = 0 h) was “Total inhibition”; in the experiment with E. coli K88 (setting [5]) it was “Total inhibition”.

For the compound `CCCCCC(=O)O` [C6, caproic acid], the “antimicrobial activity” value in experiment [1] was “show antimicrobial activities”. In addition, the Microbial count in the experiment on E. coli K88 (0.06% test substance, T = 0 h) is given as 5.708 Log (CFU/g); with E. coli K88 (setting [2]), 4.160 Log (CFU/g); in the experiment on E. coli K88 (0.125% test substance, T = 0 h), 5.700 Log (CFU/g); in the experiment with E. coli K88 (setting [3]), “Total inhibition”; in the experiment with E. coli K88 (0.250% test substance, T = 0 h), 4.920 Log (CFU/g); with E. coli K88 (setting [4]), “Total inhibition”. In addition, the Microbial count entry in the experiment with E. coli K88 (0.500% test substance, T = 0 h) is “Total inhibition”; with E. coli K88 (setting [5]), “Total inhibition”.

For `CCCCCCCCCC(=O)O` [C10, capric acid], the “relative antimicrobial effect on the tested Campylobacter strains” value in experiment [1] is given as “stronger antimicrobial effect compared to C8”. Further, in experiment [1], the “antimicrobial activity” value is recorded as “show antimicrobial activities”. In addition, the Microbial count in the experiment on E. coli K88 (0.06% test substance, T = 0 h) is 6.964 Log (CFU/g); in the experiment with E. coli K88 (setting [2]) it was 6.854 Log (CFU/g); with E. coli K88 (0.125% test substance, T = 0 h), 6.927 Log (CFU/g); with E. coli K88 (setting [3]), 6.707 Log (CFU/g); in the experiment on E. coli K88 (0.250% test substance, T = 0 h) it was 6.966 Log (CFU/g); with E. coli K88 (setting [4]) it was 4.708 Log (CFU/g). In addition, the Microbial count with E. coli K88 (0.500% test substance, T = 0 h) is recorded as 6.816 Log (CFU/g); in the experiment with E. coli K88 (setting [5]) it was “Total inhibition”.
